From article PMC9217978, “Design, synthesis, in vitro α-glucosidase inhibition, docking, and molecular dynamics of new phthalimide-benzenesulfonamide hybrids for targeting type 2 diabetes” (Scientific Reports, 2022)
Read-outs that look alike come from different tables or passages of the source.

Experiments:
α-glucosidase = conditions: read-out: IC50 against α-glucosidase, cited from earlier work
yeast α-glucosidase = yeast α-glucosidase (Saccharomyces cerevisiae, UniProt P53341); test: biochemical; type: biochemical; conditions: for α-glucosidase inhibitory activity, in words: SAR discussion; for IC50: read-out: IC50 (μM), in vitro α-glucosidase inhibitory activity
Text: On the other hand, there are phenyl, 4-methylphenyl, and or 4-methoxyphenyl groups in the benzenesulfonamide moiety.

α-amylase = molecular target: T1, α-amylase (Homo sapiens, UniProt P04746); test: In vitro α-amylase inhibition assay; type: biochemical; conditions: at 300 μM
T1 sequence (P04746 16-511): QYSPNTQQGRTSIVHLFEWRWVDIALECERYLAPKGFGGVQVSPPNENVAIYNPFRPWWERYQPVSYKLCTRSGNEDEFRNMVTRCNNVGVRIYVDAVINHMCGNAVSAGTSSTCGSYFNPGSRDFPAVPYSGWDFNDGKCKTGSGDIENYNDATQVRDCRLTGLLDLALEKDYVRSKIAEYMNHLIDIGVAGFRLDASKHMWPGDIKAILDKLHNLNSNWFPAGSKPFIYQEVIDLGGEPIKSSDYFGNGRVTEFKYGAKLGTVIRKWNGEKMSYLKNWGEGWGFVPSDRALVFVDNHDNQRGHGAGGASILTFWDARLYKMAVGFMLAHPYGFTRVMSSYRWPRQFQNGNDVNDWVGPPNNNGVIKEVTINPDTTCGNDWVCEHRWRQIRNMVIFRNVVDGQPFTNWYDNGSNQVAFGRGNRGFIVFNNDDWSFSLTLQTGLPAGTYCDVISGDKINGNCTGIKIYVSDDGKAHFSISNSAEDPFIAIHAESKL

Chain of yeast α-glucosidase (P53341 whole entry): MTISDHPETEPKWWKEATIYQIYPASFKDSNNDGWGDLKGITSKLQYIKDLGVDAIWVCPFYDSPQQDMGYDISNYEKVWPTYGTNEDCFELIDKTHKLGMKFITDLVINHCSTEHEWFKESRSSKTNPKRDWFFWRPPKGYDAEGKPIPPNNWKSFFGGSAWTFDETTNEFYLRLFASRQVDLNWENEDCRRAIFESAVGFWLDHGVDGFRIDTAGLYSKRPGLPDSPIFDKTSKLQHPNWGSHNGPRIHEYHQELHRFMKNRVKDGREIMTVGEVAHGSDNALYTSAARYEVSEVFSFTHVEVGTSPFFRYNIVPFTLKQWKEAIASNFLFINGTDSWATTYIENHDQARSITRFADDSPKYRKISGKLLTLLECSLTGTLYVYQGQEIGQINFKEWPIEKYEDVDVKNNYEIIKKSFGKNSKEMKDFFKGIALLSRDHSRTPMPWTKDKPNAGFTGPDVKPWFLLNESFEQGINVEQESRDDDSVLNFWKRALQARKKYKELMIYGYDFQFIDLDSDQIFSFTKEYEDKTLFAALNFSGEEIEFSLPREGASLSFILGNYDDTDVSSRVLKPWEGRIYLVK

Structure (SMILES) | α-glucosidase inhibitory activity, in words (yeast α-glucosidase) | melting point | IC50 (yeast α-glucosidase) | further results
O=C1c2ccccc2C(=O)N1CCCOc1ccc(Cl)c(Cl)c1 [A] | – | – | – | IC50 (α-glucosidase; Fig. 2, phthalimide derivative A study): 7.55 µM
Cc1ccc(S(=O)(=O)Nc2ccc3c(c2)C(=O)N(CCOc2ccc(O)cc2)C3=O)cc1 [B] | – | – | – | IC50 (α-glucosidase; Fig. 2, phthalimide-benzenesulfonamid B study): 25.5 µM
O=C1c2ccccc2C(=O)N1CCC(=NS(=O)(=O)c1ccccc1)N1CCCCC1 [Compound 4a, N-(3-(1,3-Dioxoisoindolin-2-yl)-1-(piperidin-1-yl)propylidene)benzenesulfonamide] | inactive | 158 to 160 °C | – | –
Cc1ccc(S(=O)(=O)N=C(CCN2C(=O)c3ccccc3C2=O)N2CCCCC2)cc1 [Compound 4b, N-(3-(1,3-Dioxoisoindolin-2-yl)-1-(piperidin-1-yl)propylidene)-4-methylbenzenesulfonamide] | high inhibitory activity | 198 to 200 °C | 127.24 ± 0.1 µM | –
COc1ccc(S(=O)(=O)N=C(CCN2C(=O)c3ccccc3C2=O)N2CCCCC2)cc1 [Compound 4c, N-(3-(1,3-dioxoisoindolin-2-yl)-1-(piperidin-1-yl)propylidene)-4-methoxybenzenesulfonamide] | good anti-α-glucosidase activity | 146 to 148 °C | 200.29 ± 0.1 µM | –
O=C1c2ccccc2C(=O)N1CCC(=NS(=O)(=O)c1ccccc1)N1CCOCC1 [Compound 4d, N-(3-(1,3-dioxoisoindolin-2-yl)-1-morpholinopropylidene)benzenesulfonamide] | inactive | 168 to 170 °C | – | –
Cc1ccc(S(=O)(=O)N=C(CCN2C(=O)c3ccccc3C2=O)N2CCOCC2)cc1 [Compound 4e, N-(3-(1,3-Dioxoisoindolin-2-yl)-1-morpholinopropylidene)-4-methylbenzenesulfonamide] | high inhibitory activity | 204 to 206 °C | 117 ± 0.14 µM | inhibition effect against α-amylase (α-amylase): no inhibition effect
COc1ccc(S(=O)(=O)N=C(CCN2C(=O)c3ccccc3C2=O)N2CCOCC2)cc1 [Compound 4f, N-(3-(1,3-Dioxoisoindolin-2-yl)-1-morpholinopropylidene)-4-methoxybenzenesulfonamide] | – | 172 to 174 °C | – | –
O=C1c2ccccc2C(=O)N1CCC(=NS(=O)(=O)c1ccccc1)N(c1ccccc1)c1ccccc1 [Compound 4g, 3-(1,3-Dioxoisoindolin-2-yl)-N,N-diphenyl-N'-(phenylsulfonyl)propanimidamide] | moderate inhibitory activity | 202 to 204 °C | 478 ± 0.07 µM | –
Cc1ccc(S(=O)(=O)N=C(CCN2C(=O)c3ccccc3C2=O)N(c2ccccc2)c2ccccc2)cc1 [Compound 4h, 3-(1–3-Dioxoisoindolin-2-yl)-N,N-diphenyl-N’-tosylpropanimidamide] | moderate α-glucosidase inhibitors | 202 to 204 °C | 497 ± 0.25 µM | –
O=C1c2ccccc2C(=O)N1CCC(=NS(=O)(=O)c1ccccc1)N1CCC(Cc2ccccc2)CC1 [Compound 4i, N-(1-(4-benzylpiperidin-1-yl)-3-(1,3-dioxoisoindolin-2-yl)propylidene)benzenesulfonamide] | high inhibitory activity | – | 84.3 ± 0.4 µM | –
COc1ccc(S(=O)(=O)N=C(CCN2C(=O)c3ccccc3C2=O)N2CCC(Cc3ccccc3)CC2)cc1 [Compound 4k] | inactive | – | – | –
O=C1c2ccccc2C(=O)N1CCC(=NS(=O)(=O)c1ccccc1)N1CCN(c2ccccc2)CC1 [Compound 4l, N-(3-(1,3-dioxoisoindolin-2-yl)-1-(4-phenylpiperazin-1-yl)propylidene)benzenesulfonamide] | – | 160 to 164 °C | – | –
NS(=O)(=O)c1ccc(N/N=C/c2coc3ccccc3c2=O)cc1 [D] | – | – | – | IC50 (α-glucosidase; Fig. 2, chromone-benzenesulfonamid D study): 20.1 µM
O=C(N/N=C/c1ccc(OCCCN2C(=O)c3ccccc3C2=O)cc1)c1cc2ccccc2oc1=O [E] | – | – | – | IC50 (α-glucosidase; Fig. 2, phthalimide-coumarin E study): 85.2 µM
